Assay results: the supplement of paper PMC11208160

Experiment: recombinant UMI read abundance after kanamycin selection (control-corrected) (log10(CPM+1)); higher = more efficient recombination; extreme values may be limits of the assay; sequences stand for … in AGTGCAGAGAAAATCGGCCAGTTTTCTCTGCCTGCAGTCCGCATGCCGTGGGACCCCTTGGGTTCTAACCTGTTGCCTAGATTTATGCAGCGGACTGCCTTTCTCCCAAAGTGATAAACCGG…AGGTTGGTTTCACT; site = the 11-nt donor
Outline: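 In Escherichia coli, a pool of donor and donor-binding-loop pairs, each with a 12-nt UMI, was tested for the IS621 bridge recombinase. Plating was on IPTG (0.07 mM) plus kanamycin, or without selection, in two replicates. Recombinant UMIs were amplified by PCR across the donor–target junction and sequenced, and counts were reported as log10(CPM+1) after averaging and control-derived scaling.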
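Note: IS621 bridge recombinase in Escherichia coli cells against a fixed T5 target plasmid.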

Sequence | recombinant UMI read abundance (log10)
CGGTAGTCATGGACCGGTTTTCCCGGTAATCCGTATTTGTT (site CGGTAGTCTAA) | 3.15
CGGTATCCATGGACCGGTTTTCCCGGTAATCCGTATTTGCG (site CGGTATCCTCG) | 0.378
CGGTATCCATGGACCGGTTTTCCCGGTAATCCGTATTTGTC (site CGGAATCCTAA) | 0.00431
CGGTATCCATGGACCGGTTTTCCCGGTAATCCGTATTTGTC (site CGGTATCCTGA) | 0
CGGTCAGCATGGACCGGTTTTCCCGGTAATCCGTATTTGCT (site CGATCATCTAG) | 0
CGGTCAGCATGGACCGGTTTTCCCGGTAATCCGTATTTGCT (site CGGTCAGCTAG) | 1.12
CGGTCGACATGGACCGGTTTTCCCGGTAATCCGTATTTGGG (site CAGTCGACTCC) | 0.0262
CGGTCGACATGGACCGGTTTTCCCGGTAATCCGTATTTGGG (site CCGTCGACTCC) | 0.0265
CGGTCGACATGGACCGGTTTTCCCGGTAATCCGTATTTGGG (site CGGTCGACTCC) | 0.018
CGGTCGACATGGACCGGTTTTCCCGGTAATCCGTATTTGGG (site CTGTCGACTCC) | 0.0407
CGGTCGACATGGACCGGTTTTCCCGGTAATCCGTATTTGTT (site CGATCGACTAA) | 0.0167
CGGTCGACATGGACCGGTTTTCCCGGTAATCCGTATTTGTT (site CGCTCGACTAA) | 0.00476
CGGTCGACATGGACCGGTTTTCCCGGTAATCCGTATTTGTT (site CGGTCGACTAA) | 0.226
CGGTCGACATGGACCGGTTTTCCCGGTAATCCGTATTTGTT (site CGTTCGACTAA) | 0.00264
CGGTGGACATGGACCGGTTTTCCCGGTAATCCGTATTTGTC (site CGGTGGACTGA) | 2.27
CGGTTCCCATGGACCGGTTTTCCCGGTAATCCGTATTTGTG (site AGGTTCCCTCA) | 0.0113

Sequence | recombinant UMI read abundance (log10)
CGGTTCCCATGGACCGGTTTTCCCGGTAATCCGTATTTGTG (site CGGTTCCCTCA) | 0.0387
CGGTTCCCATGGACCGGTTTTCCCGGTAATCCGTATTTGTG (site GGGTTCCCTCA) | 0.0355
CGGTTCCCATGGACCGGTTTTCCCGGTAATCCGTATTTGTG (site TGGTTCCCTCA) | 0.0119
CGGTTGGCATGGACCGGTTTTCCCGGTAATCCGTATTTGCT (site CGATTGGCTAG) | 0.3
CGGTTGGCATGGACCGGTTTTCCCGGTAATCCGTATTTGCT (site CGCTTGGCTAG) | 0.00834
CGGTTGGCATGGACCGGTTTTCCCGGTAATCCGTATTTGCT (site CGGTTGGCTAG) | 1.08
CGGTTGGCATGGACCGGTTTTCCCGGTAATCCGTATTTGCT (site CGTTTGGCTAG) | 0
CGTAAGCCATGGACCGGTTTTCCCGGTAATCCGTATTTGTT (site CGGAATCCTAA) | 0
CGTAAGCCATGGACCGGTTTTCCCGGTAATCCGTATTTGTT (site CGTAAGCCTAA) | 0.666
CGTAATCCATGGACCGGTTTTCCCGGTAATCCGTATTTGTT (site CGAAATCCTAA) | 0.00285
CGTAATCCATGGACCGGTTTTCCCGGTAATCCGTATTTGTT (site CGCAATCCTAA) | 0
CGTAATCCATGGACCGGTTTTCCCGGTAATCCGTATTTGTT (site CGGAATCCTAA) | 0.00347
CGTAATCCATGGACCGGTTTTCCCGGTAATCCGTATTTGTT (site CGTAATCCTAA) | 0
CGTACATCATGGACCGGTTTTCCCGGTAATCCGTATTTGCT (site CGAACATCTAG) | 0.623
CGTACATCATGGACCGGTTTTCCCGGTAATCCGTATTTGCT (site CGATCATCTAG) | 0
CGTACATCATGGACCGGTTTTCCCGGTAATCCGTATTTGCT (site CGCACATCTAG) | 0
